# The SangsterLogP compilation
row,SMILES,logP
1,N#Cc1cccc([N+](=O)[O-])c1,1.3
2,CCOc1ccc(C#N)cc1OC,2.06
3,N#Cc1ccc(Cl)c(Cl)c1,2.98
4,COc1ccc(C#N)cc1[N+](=O)[O-],1.23
5,N#Cc1ccc(Br)cc1,2.42
6,CCOc1ccc(C#N)cc1[N+](=O)[O-],1.77
7,CCOc1ccc(C#N)cc1Br,2.99
8,CCOc1cc(C#N)ccc1O,1.36
9,N#Cc1ccc(O)c(Br)c1,1.75

# More lines, now with the values ahead:
row,logP,SMILES
1,2.89,CC(C)C(C#N)c1ccccc1 (configuration not stated)
2,1.49,COc1ccc(C#N)cc1
3,2.63,CC(C)C(C#N)c1ccc([N+](=O)[O-])cc1 (configuration not stated)
4,1.42,COc1ccc(C#N)cc1OC
5,2.68,COc1ccc(C(C#N)C(C)C)cc1 (configuration not stated)
6,2.03,CCOc1ccc(C#N)cc1
7,0.82,COc1cc(C#N)ccc1O
8,2.35,COc1ccc(C#N)cc1Br
